How the values were obtained:
[1] = biological target: Prostaglandin G/H synthase 1 (Homo sapiens, UniProt P23219); type: cell-based, COS
Description: Inhibition of human cyclooxygenase-1 expressed in COS cells

[2] = biological target: T1, Prostaglandin G/H synthase 2 (Homo sapiens, UniProt P35354); type: cell-based, COS
T1 sequence (P35354 whole entry): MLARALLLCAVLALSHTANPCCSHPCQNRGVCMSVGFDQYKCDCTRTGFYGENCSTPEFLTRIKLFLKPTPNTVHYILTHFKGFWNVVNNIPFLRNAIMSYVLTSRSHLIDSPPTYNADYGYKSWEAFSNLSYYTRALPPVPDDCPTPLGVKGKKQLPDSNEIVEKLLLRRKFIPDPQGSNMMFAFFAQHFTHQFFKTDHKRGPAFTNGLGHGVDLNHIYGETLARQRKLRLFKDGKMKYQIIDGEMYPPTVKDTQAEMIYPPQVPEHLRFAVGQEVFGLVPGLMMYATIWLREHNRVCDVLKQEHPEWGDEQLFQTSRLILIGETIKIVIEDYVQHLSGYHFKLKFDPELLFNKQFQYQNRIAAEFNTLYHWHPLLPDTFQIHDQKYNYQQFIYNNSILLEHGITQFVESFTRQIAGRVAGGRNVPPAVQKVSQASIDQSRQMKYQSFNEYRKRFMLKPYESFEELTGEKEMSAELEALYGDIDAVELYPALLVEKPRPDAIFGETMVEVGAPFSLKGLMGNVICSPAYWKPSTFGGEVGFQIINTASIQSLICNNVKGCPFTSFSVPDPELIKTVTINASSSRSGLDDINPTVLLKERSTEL
Description: Inhibition of human cyclooxygenase-2 expressed in COS cells

[3] = biological target: T2, Prostaglandin G/H synthase 2 (Rattus norvegicus) (UniProt P35355); test: Percent reversal of FCA-induced arthritis in rats at 10 mg/kg; type: functional, organism-based; design: dose 10 mg/kg
T2 sequence (whole entry): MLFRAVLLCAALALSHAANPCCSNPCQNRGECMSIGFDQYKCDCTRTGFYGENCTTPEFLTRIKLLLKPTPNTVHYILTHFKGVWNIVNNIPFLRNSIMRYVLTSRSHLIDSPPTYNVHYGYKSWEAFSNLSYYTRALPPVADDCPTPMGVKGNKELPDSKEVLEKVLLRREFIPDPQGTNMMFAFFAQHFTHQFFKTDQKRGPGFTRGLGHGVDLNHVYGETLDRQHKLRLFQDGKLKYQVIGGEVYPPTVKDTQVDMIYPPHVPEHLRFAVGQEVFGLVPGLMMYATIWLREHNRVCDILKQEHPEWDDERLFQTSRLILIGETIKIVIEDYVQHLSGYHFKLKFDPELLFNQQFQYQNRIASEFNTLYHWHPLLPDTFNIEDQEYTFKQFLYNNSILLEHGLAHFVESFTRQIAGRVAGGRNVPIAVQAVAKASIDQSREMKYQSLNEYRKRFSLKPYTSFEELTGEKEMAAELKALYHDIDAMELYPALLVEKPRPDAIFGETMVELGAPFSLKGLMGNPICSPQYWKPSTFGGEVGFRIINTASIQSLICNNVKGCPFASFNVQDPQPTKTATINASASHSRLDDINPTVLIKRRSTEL

[4] = Clearance after iv administration of 2 mg/kg to rat; type: ADME, organism-based; design: dose 2 mg/kg, route intravenous; settings: in vivo
[5] = Distribution after iv administration of 2 mg/kg to rat; type: ADME, organism-based; design: dose 2 mg/kg, route intravenous; settings: in vivo, read-out: Distribution
[6] = Oral bioavailability after oral administration of 5 mg/kg to rat; type: ADME, organism-based; settings: in vivo, read-out: Bioavailabiility
[7] = Half life after iv administration of 2 mg/kg to rat; type: ADME, organism-based; design: dose 2 mg/kg, route intravenous; settings: in vivo

Chain of Prostaglandin G/H synthase 1 (P23219 whole entry): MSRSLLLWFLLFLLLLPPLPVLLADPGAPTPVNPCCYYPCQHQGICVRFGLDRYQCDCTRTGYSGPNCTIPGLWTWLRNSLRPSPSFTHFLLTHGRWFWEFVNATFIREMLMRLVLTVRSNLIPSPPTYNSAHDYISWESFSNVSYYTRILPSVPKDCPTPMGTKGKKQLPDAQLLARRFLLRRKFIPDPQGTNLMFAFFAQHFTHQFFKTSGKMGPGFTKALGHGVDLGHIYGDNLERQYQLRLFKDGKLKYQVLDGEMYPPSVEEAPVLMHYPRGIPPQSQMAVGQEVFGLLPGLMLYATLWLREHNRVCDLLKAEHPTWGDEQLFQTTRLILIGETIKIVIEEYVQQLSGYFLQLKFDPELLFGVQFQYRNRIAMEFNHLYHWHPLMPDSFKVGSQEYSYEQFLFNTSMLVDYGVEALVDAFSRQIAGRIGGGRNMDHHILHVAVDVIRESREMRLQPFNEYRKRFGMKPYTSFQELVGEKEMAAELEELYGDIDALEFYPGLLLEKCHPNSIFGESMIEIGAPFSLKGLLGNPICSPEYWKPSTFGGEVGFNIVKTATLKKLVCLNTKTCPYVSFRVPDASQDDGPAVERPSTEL

IC50 [1] [µM] | IC50 [2] [µM] | Reversal activity [3] [%] | clearance [4] [mL/min/kg] | Vd [5] [L/kg] | bioavailability [6] [%] | half-life [7] [h] | SMILES
> 100 | 0.039 |  |  |  |  |  | CS(=O)(=O)c1ccc(-c2c(-c3ccc(F)cc3)nn3ncccc23)cc1
> 100 | 0.057 |  |  |  |  |  | CC(C)Oc1ccc2c(-c3ccc(S(C)(=O)=O)cc3)c(-c3ccc(F)cc3)nn2n1
> 100 | 0.388 | 92 |  |  |  |  | NS(=O)(=O)c1ccc(-c2c(-c3ccc(OC(F)(F)F)cc3)nn3ncccc23)cc1
> 84.2 |  |  | 9 | 3 | 80 | 4.1 | CCOc1ccc(-c2nn3ncccc3c2-c2ccc(S(C)(=O)=O)cc2)cc1 [GW-406381]
58.3 | 0.034 | 78 |  |  |  |  | CS(=O)(=O)c1ccc(-c2c(-c3cccc(F)c3)nn3ncccc23)cc1
> 35.1 | 0.051 | 10 |  |  |  |  | COc1ccc2c(-c3ccc(S(C)(=O)=O)cc3)c(-c3ccc(F)cc3)nn2n1
> 19.1 | 0.017 | 23 |  |  |  |  | Cc1ccc(-c2nn3ncccc3c2-c2ccc(S(C)(=O)=O)cc2)cc1
43.9 | < 0.031 | 1 |  |  |  |  | Cc1ccc2c(-c3ccc(S(C)(=O)=O)cc3)c(-c3ccccc3)nn2n1
> 100 |  |  |  |  |  |  | Cc1ccc(-c2ncc(Cl)cc2-c2ccc(S(C)(=O)=O)cc2)cn1 [ETORICOXIB]
> 100 | 0.002 |  |  |  |  |  | CS(=O)(=O)c1ccc(-c2c(-c3ccccc3)nn3ncccc23)cc1
8.63 | 0.013 |  |  |  |  |  | CCOc1ccc(-c2nn3nc(SC)ccc3c2-c2ccc(S(N)(=O)=O)cc2)cc1
2.61 | 0.026 |  |  |  |  |  | COc1ccc2c(-c3ccc(S(N)(=O)=O)cc3)c(-c3ccc(F)cc3)nn2n1
> 100 | 0.05 | 15 |  |  |  |  | COc1ccc2c(-c3ccc(S(C)(=O)=O)cc3)c(-c3ccc(C)cc3)nn2n1
> 100 | 0.024 |  |  |  |  |  | Cc1ccc2c(-c3ccc(S(C)(=O)=O)cc3)c(-c3ccc(F)cc3)nn2n1
> 100 | 0.043 | 11 |  |  |  |  | CCOc1ccc2c(-c3ccc(S(C)(=O)=O)cc3)c(-c3ccc(F)cc3)nn2n1
24.1 | < 0.01 | 0 |  |  |  |  | NS(=O)(=O)c1ccc(-c2c(-c3ccc(F)cc3)nn3ncccc23)cc1
> 100 | 0.264 | 0 |  |  |  |  | CCOc1ccc(-c2nn3nc(S(C)(=O)=O)ccc3c2-c2ccc(S(N)(=O)=O)cc2)cc1
> 100 | 0.048 | 40 |  |  |  |  | CCc1ccc2c(-c3ccc(S(C)(=O)=O)cc3)c(-c3ccc(F)cc3)nn2n1
